Experiments:
[1] = tested on: SDMA signal (PRMT5 inhibition) in HCT116 MTAP-deleted cells; assay: Symmetric di-methyl arginine image-based high content screen assay (SDMA assay), HCT116 MTAP-deleted; format: cell-based; details: SDMA assay; for EC50: Homo sapiens, HCT-116, 72 h, 3 days of treatment, cell line not given, taken as HCT116 MTAP-deleted, read-out: EC50 (SDMA assay)
Outline: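 HCT116 MTAP-deleted cells treated with compound until Day 3, then formalin-fixed, permeabilized and immunostained for SDMA, with DAPI nuclear counterstain. Imaged by high-content microscopy; SDMA read-out is mean Alexa 488 intensity per DAPI-defined cell, reflecting PRMT5 inhibition.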

[2] = tested on: HCT116 MTAP-deleted cells; assay: Cell viability assay (CellTiter-Glo, 7 days), HCT116 MTAP-deleted; details: Homo sapiens, HCT-116, 168 h
[3] = taken as HCT116 WT versus MTAP-deleted
[4] = taken as HCT116 WT vs MTAP-deleted

Structure (SMILES) | EC50 [1] | EC50 selectivity (SDMA assay) [1, 3] | CC50 [2] | EC50 selectivity (SDMA assay) [1, 4]
CC(=O)N(C)N(Cc1ccc(-c2csc(C(F)(F)F)n2)cc1F)C(=O)c1ccc2nc(N)c3cnn(C)c3c2c1 [Example 250, N′-acetyl-4-amino-N-(2-fluoro-4-(2-(trifluoromethyl)thiazol-4-yl)benzyl)-N′,1-dimethyl-1H-pyrazolo[4,3-c]quinoline-8-carbohydrazide] | < 1 nM | 153 | < 100 nM | –
CN(C(=O)[C@@H]1C[C@@H]1F)N(Cc1ccc(C(F)(F)F)cn1)C(=O)c1ccc2nc(N)c3cnn(C)c3c2c1 [Example 276, 4-amino-N′-((1S,2S)-2-fluorocyclopropane-1-carbonyl)-N′,1-dimethyl-N-((5-(trifluoromethyl)pyridin-2-yl)methyl)-1H-pyrazolo[4,3-c]quinoline-8-carbohydrazide] | 1 to 5 nM | 166 | < 100 nM | –
CC(=O)N(C)N(Cc1cc2cc(Cl)ccn2n1)C(=O)c1ccc2nc(N)c3cnn(C)c3c2c1 [Example 400, N′-acetyl-4-amino-N-((5-chloropyrazolo[1,5-a]pyridin-2-yl)methyl)-N′,1-dimethyl-1H-pyrazolo[4,3-c]quinoline-8-carbohydrazide] | < 1 nM | – | < 100 nM | 278
Cn1ncc2c(N)nc3ccc(C(=O)N(Cc4nc5cc(C(F)(F)F)ccc5n4C)N4CCCC4=O)cc3c21 [Example 420, 4-amino-1-methyl-N-((1-methyl-5-(trifluoromethyl)-1H-benzo[d]imidazol-2-yl)methyl)-N-(2-oxopyrrolidin-1-yl)-1H-pyrazolo[4,3-c]quinoline-8-carboxamide] | < 1 nM | – | < 100 nM | 87
Cn1ncc2c3cc(C(=O)N(Cc4ccc(C(F)(F)F)cn4)N4CCOC4=O)ccc3nc(N)c21 [Example 150, 4-amino-3-methyl-N-(2-oxooxazolidin-3-yl)-N-((5-(trifluoromethyl)pyridin-2-yl)methyl)-3H-pyrazolo[3,4-c]quinoline-8-carboxamide] | 1 to 5 nM | 138 | < 100 nM | –
CC(=O)N(C)N(Cc1ccc(-c2ccnn2C)cc1F)C(=O)c1ccc2nc(N)c3cnn(C)c3c2c1 [Example 243, N′-acetyl-4-amino-N-(2-fluoro-4-(1-methyl-1H-pyrazol-5-yl)benzyl)-N′,1-dimethyl-1H-pyrazolo[4,3-c]quinoline-8-carbohydrazide] | < 1 nM | 171 | < 100 nM | –
CN(C(=O)C12CC(C#N)(C1)C2)N(Cc1ccc(C(F)(F)F)cn1)C(=O)c1ccc2nc(N)c3cnn(C)c3c2c1 [Example 188, 4-amino-N′-(3-cyanobicyclo[1.1.1]pentane-1-carbonyl)-N′,1-dimethyl-N-[[5-(trifluoromethyl)-2-pyridyl]methyl]pyrazolo[4,3-c]quinoline-8-carbohydrazide] | > 5 nM | 62 | 100 to 1000 nM | –
Cc1nc2ccc(CN(C(=O)c3ccc4nc(N)c5cnn(C)c5c4c3)N(C)C(=O)C3CC3)cc2s1 [Example 275, 4-amino-N′-(cyclopropanecarbonyl)-N′,1-dimethyl-N-((2-methylbenzo[d]thiazol-6-yl)methyl)-1H-pyrazolo[4,3-c]quinoline-8-carbohydrazide] | < 1 nM | 129 | < 100 nM | –
Cn1ncc2c(N)nc3ccc(C(=O)N(Cc4ccc(C(F)(F)F)cn4)N4CCCC(F)(F)C4)cc3c21 [Example 21, 4-amino-N-(3,3-difluoro-1-piperidyl)-1-methyl-N-[[5-(trifluoromethyl)-2-pyridyl]methyl]pyrazolo[4,3-c]quinoline-8-carboxamide] | < 1 nM | 90 | < 100 nM | –
Cn1ncc2c(N)nc3ccc(C(=O)N(Cc4ccc(C(F)(F)F)cc4F)n4cnc5ccccc54)cc3c21 [Example 322, 4-amino-N-(1H-benzo[d]imidazol-1-yl)-N-(2-fluoro-4-(trifluoromethyl)benzyl)-1-methyl-1H-pyrazolo[4,3-c]quinoline-8-carboxamide] | < 1 nM | 34 | < 100 nM | –
CC(=O)N(C(C)C)N(Cc1ccc(C(F)(F)F)cn1)C(=O)c1ccc2nc(N)c3cnn(C)c3c2c1 [Example 203, N′-acetyl-4-amino-N′-isopropyl-1-methyl-N-[[5-(trifluoromethyl)-2-pyridyl]methyl]pyrazolo[4,3-c]quinoline-8-carbohydrazide] | 1 to 5 nM | 159 | 100 to 1000 nM | –
CN(C(=O)C(C)(C)F)N(Cc1ccc(C(F)(F)F)cn1)C(=O)c1ccc2nc(N)c3cnn(C)c3c2c1 [Example 121, 4-amino-N′-(2-fluoro-2-methylpropanoyl)-N′,1-dimethyl-N-((5-(trifluoromethyl)pyridin-2-yl)methyl)-1H-pyrazolo[4,3-c]quinoline-8-carbohydrazide] | < 1 nM | 106 | < 100 nM | –
CC(=O)N(C)N(Cc1ccc(C(F)(F)F)cn1)C(=O)c1cc2c3c(c(N)nc2cc1F)[C@@H](C)OC3 [Example 167, (3R)—N′-acetyl-4-amino-7-fluoro-N′,3-dimethyl-N-[[5-(trifluoromethyl)-2-pyridyl]methyl]-1,3-dihydrofuro[3,4-c]quinoline-8-carbohydrazide] | < 1 nM | 10 | < 100 nM | –
CN(C(=O)C1CC1)N(Cc1ccc(C(F)(F)F)cn1)C(=O)c1ccc2nc(N)c3cn[nH]c3c2c1 [Example 281, 4-amino-N′-(cyclopropanecarbonyl)-N′-methyl-N-((5-(trifluoromethyl)pyridin-2-yl)methyl)-1H-pyrazolo[4,3-c]quinoline-8-carbohydrazide] | 1 to 5 nM | 70 | < 100 nM | –
[2H]C([2H])([2H])N(C(C)=O)N(Cc1ccc(C(F)(F)F)cc1F)C(=O)c1ccc2nc(N)c3cnn(C([2H])([2H])[2H])c3c2c1 [Example 266, N′-acetyl-4-amino-N-(2-fluoro-4-(trifluoromethyl)benzyl)-N′,1-bis(methyl-d3)-1H-pyrazolo[4,3-c]quinoline-8-carbohydrazide] | < 1 nM | 63 | < 100 nM | –
CN(C(=O)C1(C)CC1)N(Cc1ccc(C(F)(F)F)cn1)C(=O)c1ccc2nc(N)c3cnn(C)c3c2c1 [Example 51, 4-amino-N′,1-dimethyl-N′-(1-methylcyclopropanecarbonyl)-N-[[5-(trifluoromethyl)-2-pyridyl]methyl]pyrazolo[4,3-c]quinoline-8-carbohydrazide] | 1 to 5 nM | 260 | < 100 nM | –
CC(c1ccc(C(F)(F)F)cn1)N(C(=O)c1ccc2nc(N)c3cscc3c2c1)N(C)C (stereo not drawn) [Example 74, 4-amino-N′,N′-dimethyl-N-(1-(5-(trifluoromethyl)pyridin-2-yl)ethyl)thieno[3,4-c]quinoline-8-carbohydrazide] | > 5 nM | >71 | 100 to 1000 nM | –
Cn1ncc2c(N)nc3ccc(C(=O)N(Cc4ccc(C(F)(F)F)cc4F)N4CCOCC4=O)cc3c21 [Example 50, 4-amino-N-[[2-fluoro-4-(trifluoromethyl)phenyl]methyl]-1-methyl-N-(3-oxomorpholin-4-yl)pyrazolo[4,3-c]quinoline-8-carboxamide] | < 1 nM | 31 | < 100 nM | –
